# Values quoted from earlier work, collected in US20170095484A1, “METHOD OF TREATING RESISTANT NON-HODGKIN LYMPHOMA, MEDULLOBLASTOMA, AND/OR ALK+NON-SMALL CELL LUNG CANCER USING THIENOTRIAZOLODIAZEPINE COMPOUNDS” (ONCOETHIX GMBH, priority 2014, published 2017).
# What was measured:
# HDAC = settings: isoform not stated
# mTOR = mTOR (Homo sapiens, UniProt P42345)
# [1] = molecular target: Bruton's tyrosine kinase (BTK) (Homo sapiens, UniProt Q06187); settings: in intact cells and in cell-free systems
# Chain of Bruton's tyrosine kinase (BTK) (Q06187 whole entry): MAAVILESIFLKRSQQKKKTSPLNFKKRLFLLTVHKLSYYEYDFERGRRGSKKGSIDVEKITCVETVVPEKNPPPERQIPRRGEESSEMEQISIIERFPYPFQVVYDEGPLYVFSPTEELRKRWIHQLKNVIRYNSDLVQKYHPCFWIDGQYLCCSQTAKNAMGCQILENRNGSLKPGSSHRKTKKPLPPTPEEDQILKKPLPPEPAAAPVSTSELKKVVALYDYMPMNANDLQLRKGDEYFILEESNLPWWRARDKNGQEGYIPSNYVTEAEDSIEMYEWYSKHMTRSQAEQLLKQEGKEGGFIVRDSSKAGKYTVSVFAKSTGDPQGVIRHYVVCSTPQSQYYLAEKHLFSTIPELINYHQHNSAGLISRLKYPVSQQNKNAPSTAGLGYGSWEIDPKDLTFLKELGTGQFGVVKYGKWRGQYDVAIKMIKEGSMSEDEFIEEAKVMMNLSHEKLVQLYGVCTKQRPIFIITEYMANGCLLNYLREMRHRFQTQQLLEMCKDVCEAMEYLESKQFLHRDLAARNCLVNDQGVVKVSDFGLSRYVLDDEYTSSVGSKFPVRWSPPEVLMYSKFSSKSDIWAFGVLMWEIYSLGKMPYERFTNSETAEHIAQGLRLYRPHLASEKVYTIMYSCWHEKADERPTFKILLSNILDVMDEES
# [2] = system: Lyn, Syk, PKA, casein kinase I, ERK1, ERK2 and p38 kinase
compound,measurement,setting,value
Trichostatin A,IC50,HDAC,~1.8 nM
CO[C@H]1C[C@@H]2CC[C@@H](C)[C@@](O)(O2)C(=O)C(=O)N2CCCC[C@H]2C(=O)O[C@H]([C@H](C)C[C@@H]2CC[C@@H](OCCO)[C@H](OC)C2)CC(=O)[C@H](C)/C=C(\C)[C@@H](O)[C@@H](OC)C(=O)[C@H](C)C[C@H](C)/C=C/C=C/C=C/1C [Everolimus],IC50,mTOR,1.6 to 2.4 nM
CC1=C(O)C(=O)[C@@H]2O[C@@H]2C1=O [Terreic acid],effect on the activity of PKC,PKC,without affecting the activity of PKC
same,effect on the catalytic activity of BTK,[1],Inhibits the catalytic activity of BTK
same,"effect on the activities of Lyn, Syk, PKA, casein kinase I, ERK1, ERK2 and p38 kinase",[2],little or no effect
